Laboratory results from a melting point compilation (Tetko et al.; mined from patent text by program, amines drawn as free bases though some values may be those of a salt).

SMILES	melting point
COc1ccc([N+](=O)[O-])c(Nc2cccc(O)c2)n1	156 to 158 °C
O=C1C2=NCCCN2c2cccc(Cl)c21	170 °C
CCOc1cc(OCCCc2cn(-c3ccc(C(F)(F)F)cn3)nc2OC(C)C)ccc1CCC(=O)O	128 to 129 °C
CCOC(=O)CNC(=S)Cc1cnc(C)c(O)c1CO	147 to 149 °C
Cc1ccc(C#Cc2ccc3c(c2)C(C)(C)CCC3(C)C)cc1	99 °C
C=C(C)COc1cc(C)c(NC(C)=O)c(C)c1C	149 to 150 °C
CN(C(=O)C(F)(F)F)c1ccc(C2=NC[C@@H](OC(=O)Nc3ccccc3)[C@H](c3ccccc3)O2)cc1 (racemic)	160 °C
O=C(O)c1cccc([N+](=O)[O-])c1O	123 °C
COc1ccc(-c2coc(C#N)cc2=O)cc1	165 to 167 °C
COC(=O)c1ccc(/C=C/C(=O)NOC2CCCCO2)cc1 (stereo unspecified)	133 °C
C=C(C)COc1cc(C)c(NC=O)c(C)c1	128 to 129 °C
CS(=O)(=O)O[C@H](COCc1ccccc1)[C@@H](COCc1ccccc1)OS(C)(=O)=O	72 to 73 °C
CO[C@]1(c2cnc(S)s2)CCO[C@@H]1C (racemic)	126 to 127 °C
COC(=O)c1cccc(-c2nc(COc3ccc(CCl)cc3OC)c(C)o2)c1	125 to 126 °C
N#CC=C(c1ccccc1C(F)(F)F)c1ccccc1C(F)(F)F	65 to 68 °C
CCC(Oc1ccc(C(C)(C)CC)cc1C(C)(C)CC)C(=O)Nc1ccc(Cl)c(NC(=O)C(C(=O)C(C)(C)C)N2C(=O)NC(=C(C)C)C2=O)c1 (stereo unspecified)	178 to 179 °C
Cc1nc2cccc(N)c2nc1C	162 to 163 °C
Cc1cc(O)c(S(=O)CC(C)C)c(=O)o1 (stereo unspecified)	102 to 103 °C
O=S(=O)(c1ccc2ccccc2c1)n1ccc2ccccc21	103 to 105 °C
COc1cc(Nc2c(C#N)cnc3cc(-c4ccc5ccccc5c4)ccc23)c(Cl)cc1Cl	243 to 244 °C
O=Cc1cccc(Cl)c1SCc1ccccc1	65 to 68 °C
NC(=O)c1nc(Cl)cc(N)c1Cl	240 to 241 °C
COCCOCc1c(CN(C)CC(O)c2ncccn2)sc2c(=O)c(C(=O)NCc3ccc(Cl)cc3)cn(C)c12 (stereo unspecified)	146 to 148 °C
CCOC(=O)c1cccc(O)c1O	66 to 67.2 °C
CCOC(=O)CCc1oc(-n2cncn2)nc1-c1ccc(Cl)cc1	99 to 100 °C
CCCOC(=O)c1c(CN2CCCCC2)nc2cc(OC)c(OC)cc2c1-c1ccc(OC)c(OC)c1	129 to 131 °C

SMILES	melting point
CCCCC1=Nc2sccc2C(=CN)N1CCC	45 to 47 °C
N#CC1=C(c2ccccc2)Nc2n[nH]cc2C1c1cccc(C(F)(F)F)c1Cl (stereo unspecified)	> 250 °C
O=C1NC2(CCC(F)(F)CC2)C(O)=C1c1cc(-c2ccc(Cl)cc2)ccc1Cl	156 °C
O=Cc1nccc(OCc2ccccc2)c1OCc1ccccc1	103 to 104 °C
O=C(CCCCN1CCC(Cc2ccccc2)CC1)c1ccc2c(c1)C(=O)c1cc(C(=O)CCCCN3CCC(Cc4ccccc4)CC3)ccc1-2	124 to 126 °C
Cc1ccc2c(c1)cc(CCCC(=O)O)n2S(=O)(=O)c1ccc2ncsc2c1	128 °C
O=C(O)c1cnn(CCCCN2CCN(C(c3ccccc3)c3ccccc3)CC2)c1	70 to 74 °C
CCCC1=Cc2c(c(C)c(C)c3oc(C(=O)O)cc23)C1=O	242 °C
CCCCCCCOc1ccc(C(=O)O)c(Cl)c1	76 to 78 °C
NC(Cc1c[nH]c2c(Br)cccc12)C(=O)O (stereo unspecified)	> 260 °C
CCCN(C)S(=O)(=O)c1cc(-n2c(=O)cc(C(F)(F)F)n(C)c2=O)ccc1Cl	144 to 145 °C
CN(C)C1CCN(S(=O)(=O)c2cc(C#N)ccc2Oc2cc(F)ccc2F)CC1	154 to 157 °C
CCOc1cc2c(Nc3cc(OC)c(Cl)cc3Cl)c(C#N)cnc2cc1OCCN1CCN(C)CC1	141 to 143 °C
Cc1ccc(C(=O)[C@@](O)(C(=O)O)[C@H](O)C(=O)O)cc1	126 to 130 °C
CN1CCOc2cc(S(=O)(=O)n3c(COC(C)(C)C(=O)O)cc4cc(C(F)(F)F)ccc43)ccc21	148 to 150 °C
CCC(=O)c1ccc(OCc2cccc(C(F)(F)F)c2)cc1	63 to 64 °C
CNS(=O)(=O)c1ccc(-c2cccc(-c3nc(C(C)C)[nH]c3-c3cccc(C)n3)c2)cc1	96 to 100 °C
COc1ccc(OCCCCCC(=O)O)c(C=O)c1	104 to 106 °C
N=C(CCOCC(COCCC(=N)NO)(COCCC(=N)NO)COCCC(=N)NO)NO (stereo unspecified)	60 °C
O=C1c2ccccc2C(=O)N1CCOc1ccc([N+](=O)[O-])cc1	151 to 153 °C
Cc1oc(-c2ccccc2)nc1COc1cncc(COc2cccc(CC(=O)O)c2)c1	143 to 144 °C
CNC(=O)c1ccc(-c2ccc3oc(C4CCN(C(=O)OC(C)C)CC4)nc3c2)cc1F	116 to 120 °C
CCCCNC(=O)C(=O)NCCCCCBr	109 to 110 °C
COc1ccc(CCC(=O)c2ccc(O)cc2)c(OC)c1	126 to 127 °C
CC(C)c1ccc(-c2ccc(-c3cccc(C(=O)O)c3)s2)cc1	233 to 235 °C
O=C(O)CCc1ccc(C(c2cc(F)ccc2F)S(=O)(=O)c2ccc(Cl)cc2)nc1 (stereo unspecified)	158 to 160 °C

SMILES	melting point
O=C1C=C(Oc2ccc(-c3ccccc3)cc2)C(O)O1 (stereo unspecified)	192 to 193 °C
CCC(C)(C)c1ccc(OCCCNC(=O)c2cc(OCCS(=O)(=O)CC)c3ccccc3c2O)c(C(C)(C)CC)c1	155 to 157 °C
Sc1nc2ccccc2c2nc(-c3ccoc3)nn12	290 to 292 °C
CC1C(=O)CC(C)C(C#N)C1=O (stereo unspecified)	178 to 179 °C
[N-]=[N+]=NC[C@H]1CN(c2ccc(N3CCSCC3)c(F)c2)C(=O)O1	91.5 to 93 °C
CC(=O)c1ccnc(N(C)C)c1	37 to 42 °C
CC1(C)C(=O)CC(=O)C(C)(C)C1=O	92.5 to 93 °C
C#CCOc1cc(-n2nc3c(Cl)cc(Cl)cn3c2=O)c(F)cc1C#N	145 to 147 °C
CSc1cc(C(C)(C)C)nn1C(=O)N(C)C	56 to 58 °C
FC(F)(F)c1ccc2c(Nc3ccccc3)ncnc2c1	230 to 232 °C
Cn1c2ccccc2c2cc(CO)ccc21	96 °C
CC(=O)c1c(-c2ccc(Cl)cc2)c(-c2ccc(Cl)cc2)nn(CCN(C)C)c1=O	149 to 150 °C
O=c1[nH]c2c([nH]c1=O)C1=C(CCC(n3cccc3)=C1)CC2	> 250 °C
C=CCC(C#N)(C#N)Cc1c(F)c(F)c(F)c(F)c1F	78.2 °C
CC(=O)NCC1CN(c2ccc(N3CCN(c4nnc(C5CC5)s4)CC3)c(F)c2)C(=O)O1 (stereo unspecified)	217 to 218 °C
Cc1nc(-n2ccc(OCC3CCCC3)cc2=O)sc1C(=O)NCc1ccccc1	196 to 198 °C
CC(=O)c1cc(C)cc(C)c1NC(=O)c1sccc1S(=O)(=O)Nc1onc(C)c1C	158 to 160 °C
COC(=O)C1C(CC(C)C)C(C(=O)OC)C(O)(C(F)(F)F)OC1(O)C(F)(F)F (stereo unspecified)	67 to 73 °C
Cc1cc(=O)n2cccc(OCc3ccccc3Cl)c2n1	166 to 168 °C
Cc1ccncc1-c1nc(-c2ccc(S(N)(=O)=O)cc2)cs1	219 °C
CCCCCCC(=N)NC(=S)Nc1ccc(OC(F)(F)F)cc1	90 to 91 °C
C[C@]12CC[C@@H]3c4ccc(O)cc4CC[C@H]3[C@@H]1CCC2=C(F)F	154 to 156 °C
CC(C)(C)n1c(=O)[nH]c2ccccc21	146 to 147 °C
CCCCc1nc2c(C)cccc2n1Cc1cc(C(=O)OC)no1	96 to 101 °C
CCOP(=O)(Cc1c2ccccc2cc2ccccc12)OCC	104 °C
[N-]=[N+]=NC1CC(n2cc(Cl)c(=O)[nH]c2=O)OC1CO (stereo unspecified)	65 °C

SMILES	melting point
O=C(Nc1ccc2cc(CN3CCC(CCO)CC3)cnc2c1)c1ccc(-c2ccc(Cl)cc2)cc1	204 °C
CCCCCCCCCCCCCCCCNc1ccc(C(=O)NS(=O)(=O)c2ccc(C(C)(C)C)cc2)cc1	173 to 176 °C
CC(=O)Nc1ccc2c(c1)NCC(CN(C)C)C2 (stereo unspecified)	118 to 123 °C
O=C(O)C1(C2CCCc3ccccc32)CC1 (stereo unspecified)	140 to 142 °C
CCOC(=O)c1cc2cc(-c3ccc(C(C)=NO)cc3)ccc2o1	220 to 222 °C
COc1ccc(S(=O)(=O)C2(C(=O)O)CCN(Cc3ccc(Cl)c(Cl)c3)CC2)cc1	192 to 195 °C
Oc1ccc(-c2noc(C3(COc4c(F)cccc4OC(F)(F)F)CC3)c2-c2ccccc2)cc1	132 to 133 °C
CCOc1c(NCc2c(C)cccc2C)c(=O)c1=O	281 to 283 °C
O=C(Nc1ccc(Cl)c(Cl)c1)NS(=O)(=O)c1ccc2c(c1)CCC2	156 to 158 °C
O=C(O)C1(S(=O)(=O)c2ccc(OCC#CCN3CCOCC3)cc2)CCN(Cc2ccc(Br)cc2)CC1	198 °C
COc1cc(C(=O)C(=O)O)cc(OC)c1OCCOc1ccc2ccccc2c1	114 to 116 °C
O=C(c1ccc(F)cc1)C1CCN(C(=O)CCc2ccc(OCc3ccccc3)cc2OCc2ccccc2)CC1	140 to 141 °C
Nc1c(Br)cc(O)c2c1C(=O)c1ccccc1C2=O	226 to 228 °C
O=C(ON1C(=O)CCC1=O)c1ccccn1	174 to 175 °C
Cc1cc(I)ccc1Nc1c(-c2nnco2)ccc(F)c1F	144 to 146 °C
CCCCCCCc1ccc(-c2cnc([C@H]3CC[C@H](C#N)CC3)nc2)cc1	83.5 °C
CCCn1ncc(C(N)=O)c1N	183 to 185 °C
COc1cc(COc2nn(-c3ccccc3)cc2/C=C/P(=O)(OC(C)C)OC(C)C)ccc1OCc1nc(-c2ccco2)oc1C	152 to 153 °C
Oc1ccccc1-n1cccc1	52 to 54 °C
Nc1ncc(-c2ccc(=O)n(Cc3ccccc3)n2)c(-c2ccccc2)n1	229 to 230 °C
CSC(=O)c1ccccc1NC1CCN(C)CC1	64 to 65 °C
N#Cc1c(N2CCCCC2)cc(-c2ccccc2)c2c1-c1ccccc1C2	156 °C
OC(CCCc1ccc(Cl)cc1)(Cc1ccc(Cl)cc1)c1ccc(OCc2ccc3ccccc3n2)cc1 (stereo unspecified)	123 to 124 °C
